Source: paper PMC5654082 (Malaria Journal, 2017)
Where a name gives a salt, the structure may show the parent alone.

Target: T1, MATE1 (Homo sapiens, UniProt Q96FL8)
T1 sequence (Q96FL8 1-570): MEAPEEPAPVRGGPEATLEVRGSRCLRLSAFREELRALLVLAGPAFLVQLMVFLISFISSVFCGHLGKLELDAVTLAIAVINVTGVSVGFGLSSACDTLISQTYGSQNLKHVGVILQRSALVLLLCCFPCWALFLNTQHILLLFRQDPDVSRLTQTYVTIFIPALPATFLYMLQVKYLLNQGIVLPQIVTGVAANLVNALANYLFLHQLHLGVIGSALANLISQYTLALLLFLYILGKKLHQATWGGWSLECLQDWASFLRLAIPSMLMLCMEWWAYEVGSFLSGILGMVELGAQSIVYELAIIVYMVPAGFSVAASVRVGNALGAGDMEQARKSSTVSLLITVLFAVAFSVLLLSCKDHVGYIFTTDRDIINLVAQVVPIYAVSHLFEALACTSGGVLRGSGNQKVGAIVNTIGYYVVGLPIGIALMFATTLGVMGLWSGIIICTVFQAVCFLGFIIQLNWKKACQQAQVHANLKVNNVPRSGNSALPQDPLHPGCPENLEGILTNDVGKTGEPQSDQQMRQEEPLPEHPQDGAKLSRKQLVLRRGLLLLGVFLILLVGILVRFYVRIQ
Test: MATE1-mediated uptake in transduced HEK293 cells
Assay type: cell-based
Set-up: host or cells: HEK293, baculovirus transduction (CMV promoter), transient
Conditions: 100 µM, 5 min
Method: HEK293 cells were modified to transiently express (a combination of) human OCT1, OCT2, MATE1, MATE2-K, or eYFP. Briefly, cDNA of the respective genes was cloned downstream of a CMV promoter into a baculovirus, of which passage three was used to transduce HEK293 cells. These cells were seeded in poly-D-lysine coated 24- or 96-wells plates and grown in a 37 °C incubator at 5% CO2. Growth was initiated at ~ 25% confluency using 375 or 125 μL cell and complete medium (DMEM + GlutaMAX™-I supplemented with 10% fetal bovine serum) suspension per well, respectively. […]
Import and export of PG and cycloguanil (CG) was assessed by single and double transduced HEK293 cells. […] Following the same procedure as for the cellular import assay described above, the import of 100 µM PG and CG was measured after 5 min incubation and data was plotted as mean pmol/mg/min ± SEM. […] Significant reduction in uptake (i.e. export by MATEs) was determined using ln transformation and a one-way repeated measures ANOVA with Dunnet’s post test.
Anti-malarial concentration in the cell lysates was quantified using an LC–MS/MS system consisting of a UPLC, a binary solvent manager, a vacuum degasser and an autosampler, coupled to a Xevo TQ-S micro triple quadrupole mass spectrometer. […] The peak area of the most abundant product ion was used for quantification.

| Compound | Uptake by MATE1 [pmol/mg/min] |
| --- | --- |
| CC1(C)N=C(N)N=C(N)N1c1ccc(Cl)cc1 [Cycloguanil] | 40 ± 9 |
| [H]/N=C(\N/C(=N/[H])Nc1ccc(Cl)cc1)NC(C)C [Proguanil, proguanil hydrochloride] | 430 ± 110 |
